Molecules are shown by their SMILES. Like-named read-outs stand apart in the source and are kept apart here.

The target in experiment [1] is T1, eqBChE (BChE from equine serum) (Equus caballus, UniProt P81908).
T1 construct: BChE (E.C. 3.1.1.8, from equine serum); purchased Sigma-Aldrich; host or cells: equine serum
Briefly: biochemical. As to the method:
(§1) AChE (E.C. 3.1.1.7, Type V-S, lyophilized powder, from electric eel, 1000 unit), BChE (E.C. 3.1.1.8, from equine serum), ATCI, BTCI, and DTNB were purchased from Sigma-Aldrich. To the experimental group in a 96-well plate, 10 μl AChE or BChE (final concentration is 0.04 U/ml), 25 μl tested compounds, and 65 μl PBS buffer was sequentially added. For the control group, all components were in accordance with those in the experimental group, except that 25 μl tested compounds were replaced by equal volume of PBS. For the blank group, only 100 μl PBS was added. […] The calculation formula is: inhibition rate% = (ODcontrol-ODtest)/(ODcontrol-ODblank)*100.
3. Screen of the most appropriate incubation time for compounds and
In order to find the most appropriate incubation time for compounds and enzyme, to verify whether the incubation time of 25 min is appropriate, and to further improve […]
time, made the inhibition rate-incubation time curves (Figure S1), and calculated the IC50 values of these compounds under different incubation time (Table S1).

Experiment [2] deals with T2, eeAChE (AChE from electric eel) (Electrophorus electricus, UniProt O42275).
T2 construct: AChE (E.C. 3.1.1.7, Type V-S, lyophilized powder, from electric eel, 1000 unit); purchased Sigma-Aldrich Type V-S; host or cells: electric eel
Briefly: biochemical. The conditions noted are these: incubation time 25 min; mean ± SD, at least three independent experiments. As to the method: as §1

Experiment [3] deals with T3, eqBChE (Equus caballus, UniProt P81908).
T3 construct: BChE (E.C. 3.1.1.8, from equine serum); purchased Sigma-Aldrich; host or cells: equine serum
Briefly: Inhibition kinetics of butyrylcholinesterase (reversibility, Lineweaver-Burk, Ki replot). It counts as biochemical. The text has this:
According to the type of interaction between inhibitor and enzyme, there are three reaction types including the reversible, irreversible, and pseudo-irreversible reactions in the cholinesterase catalyzed reaction, and each type has its representative characteristics. By studying the reaction rate changes in enzymatic reactions in the presence of inhibitors, the mechanism of action of inhibitors on enzymes, viz the inhibition type could be determined, which is of great significance for further structural modification and the discovery of compounds with better enzyme inhibitory activity. To reveal the interaction between synthesized inhibitors and eq BChE, we initially chose compound 3p as an example and studied the reversibility of enzymatic reaction in the presence of inhibitor. When the final concentration of substrate BTCI was fixed at 0.2 mM, we deduced from Figure 2A that both compound 3p increased the enzymatic reaction rate to varying degrees with the increase of enzyme concentration. When both the concentrations of eq BChE and BTCI remained constant, the rate of the enzymatic reaction decreased with the increase of inhibitor concentration.
In the process of reversible inhibition reaction, inhibitors can be divided into competitive, non-competitive, mixed competitive, and anti-competitive inhibitors according to the effect of inhibitors and substrate on enzyme ([Liu et al., 2022]). […] For compound 3p, the Km values increased while the Vmax values decreased compared with those in the absence of inhibitors, which was not in accordance with the characteristics of competitive, non-competitive, and anti-competitive inhibitors. Therefore, non-competitive in combination with competitive inhibition and/or non-competitive in combination with anti-competitive inhibition maybe existed in the reaction systems of compound 3p with enzyme (Figure 2B). […] However, the binding affinity of compounds 3p with the free enzyme or the substrate-enzyme complex was different. […]

The mark [4] stands for this setting: incubation time 25 min, mean ± SD, at least three independent experiments, read-out: IC50 eqBChE.
[5] abbreviates: incubation time 5 min, read-out: IC50 eqBChE under different incubation time.
[6] abbreviates: incubation time 10 min, read-out: IC50 eqBChE under different incubation time.
Where [7] appears, read: incubation time 15 min, read-out: IC50 eqBChE under different incubation time.
[8] abbreviates: incubation time 45 min, read-out: IC50 eqBChE under different incubation time.
Where [9] appears, read: incubation time 65 min, read-out: IC50 eqBChE under different incubation time.
[10] abbreviates: incubation time 85 min, read-out: IC50 eqBChE under different incubation time.

T3 sequence (P81908 whole entry): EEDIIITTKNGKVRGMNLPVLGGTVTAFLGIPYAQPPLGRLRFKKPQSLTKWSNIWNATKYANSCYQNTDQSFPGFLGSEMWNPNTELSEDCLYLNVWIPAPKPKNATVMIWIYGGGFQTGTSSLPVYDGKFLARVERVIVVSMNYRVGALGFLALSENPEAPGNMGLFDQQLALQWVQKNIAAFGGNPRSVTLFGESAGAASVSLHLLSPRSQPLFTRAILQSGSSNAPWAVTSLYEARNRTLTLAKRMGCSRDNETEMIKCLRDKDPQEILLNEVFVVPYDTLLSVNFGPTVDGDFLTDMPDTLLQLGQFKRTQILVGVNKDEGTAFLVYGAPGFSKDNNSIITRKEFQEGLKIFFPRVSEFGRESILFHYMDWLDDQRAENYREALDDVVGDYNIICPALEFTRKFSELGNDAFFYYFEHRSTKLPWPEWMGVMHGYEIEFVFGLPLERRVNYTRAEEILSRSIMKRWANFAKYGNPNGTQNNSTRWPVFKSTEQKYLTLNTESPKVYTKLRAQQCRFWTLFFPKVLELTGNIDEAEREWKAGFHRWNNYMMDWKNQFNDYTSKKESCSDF
T1 sequence (P81908 whole entry): as above
T2 sequence (O42275 24-633): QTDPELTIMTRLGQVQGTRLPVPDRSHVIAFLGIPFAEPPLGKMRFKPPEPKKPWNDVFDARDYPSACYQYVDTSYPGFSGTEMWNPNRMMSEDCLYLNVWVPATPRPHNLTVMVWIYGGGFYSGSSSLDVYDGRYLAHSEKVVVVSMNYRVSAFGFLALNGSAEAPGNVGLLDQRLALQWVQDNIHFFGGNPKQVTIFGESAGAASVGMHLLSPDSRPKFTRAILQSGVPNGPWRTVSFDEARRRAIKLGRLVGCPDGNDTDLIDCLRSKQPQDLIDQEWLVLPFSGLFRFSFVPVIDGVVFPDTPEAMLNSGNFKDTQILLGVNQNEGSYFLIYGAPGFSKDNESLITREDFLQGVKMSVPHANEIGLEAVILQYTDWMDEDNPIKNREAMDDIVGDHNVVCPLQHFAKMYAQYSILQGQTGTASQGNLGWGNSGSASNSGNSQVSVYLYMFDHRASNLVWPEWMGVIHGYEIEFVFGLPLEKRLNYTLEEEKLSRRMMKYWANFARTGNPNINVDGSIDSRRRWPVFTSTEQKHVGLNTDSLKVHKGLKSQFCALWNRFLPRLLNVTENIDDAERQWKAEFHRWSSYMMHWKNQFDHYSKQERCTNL

Consider `Cc1ccccc1-n1cccc1` [Compound 3a], for which the IC50 in experiment [1] (setting [4]) and in experiment [2] was > 50 µM in each case.

As to `Clc1ccccc1-n1cccc1` [Compound 3b], the IC50 in experiment [1] (setting [4]) and in experiment [2] was > 50 µM each time.

Consider `Cc1cccc(-n2cccc2)c1` [Compound 3c], for which the IC50 in experiment [1] (setting [4]) and in experiment [2] was > 50 µM in each case.

In the case of `Brc1cccc(-n2cccc2)c1` [Compound 3d], the IC50 in experiment [1] (setting [4]) and in experiment [2] was > 50 µM each time.

As for `CC(C)c1ccc(-n2cccc2)cc1` [Compound 3e], the IC50 in experiment [1] (setting [4]) and in experiment [2] was > 50 µM in each case.

Turning to `CSc1ccc(-n2cccc2)cc1` [Compound 3f], the IC50 in experiment [1] (setting [4]) and in experiment [2] was > 50 µM throughout.

As for `Brc1ccc(-n2cccc2)cc1` [Compound 3g], the IC50 in experiment [1] (setting [4]) and in experiment [2] was > 50 µM throughout.

As to `COC(=O)c1ccc(-n2cccc2)cc1` [Compound 3h], the IC50 in experiment [1] (setting [4]) and in experiment [2] was > 50 µM in each case.

As to `Cc1cccc(C)c1-n1cccc1` [Compound 3i], the IC50 in experiment [1] (setting [4]) and in experiment [2] was > 50 µM each time.

Take `c1ccc(-n2cccc2)nc1` [Compound 3j]: the IC50 in experiment [1] (setting [4]) and in experiment [2] was > 50 µM throughout.

Consider `Cc1cc(-n2cccc2)no1` [Compound 3k], for which the IC50 in experiment [1] (setting [4]) and in experiment [2] was > 50 µM in each case.

For the compound `c1ccc2nc(-n3cccc3)cnc2c1` [Compound 3l], the IC50 in experiment [1] (setting [4]) and in experiment [2] was > 50 µM throughout.

Regarding `c1ccc(Cc2ccn(-c3ccccc3)c2)cc1` [Compound 3m], the IC50 in experiment [1] (setting [4]) and in experiment [2] was > 50 µM throughout.

With `c1ccc(-c2ccn(-c3ccccc3)c2)cc1` [Compound 3n], the IC50 in experiment [1] (setting [4]) and in experiment [2] was > 50 µM each time.

On to `COc1ccccc1-c1ccn(-c2ccccc2)c1` [Compound 3o], for which the IC50 (commonly the concentration needed to halve the response being measured) in experiment [1] (setting [5]) was 4.8 ± 0.38 µM; in experiment [1] (setting [6]), 5.06 ± 1.2 µM; in experiment [1] (setting [7]), 6.87 ± 0.6 µM; in experiment [1] (setting [4]), 5.37 ± 0.36 µM; in experiment [1] (setting [8]), 6.67 ± 0.61 µM; in experiment [1] (setting [9]), 6.83 ± 0.24 µM. The IC50 in experiment [1] (setting [10]) is 7.63 ± 0.77 µM; in experiment [2], > 50 µM.

On to `Clc1ccccc1-c1ccn(-c2ccccc2)c1` [Compound 3p], for which the IC50 is 0.6 ± 0.1 µM in experiment [1] (setting [5]); 0.48 ± 0.24 µM in experiment [1] (setting [6]); 1.95 ± 0.13 µM in experiment [1] (setting [7]); 1.71 ± 0.087 µM in experiment [1] (setting [4]); 2.4 ± 0.11 µM in experiment [1] (setting [8]); 3.27 ± 0.49 µM in experiment [1] (setting [9]). Also, the figures for the IC50 in experiment [1] (setting [10]) and in experiment [2] were 3.2 ± 0.092 µM and > 50 µM, respectively. Further, the Inhibition mode entry in experiment [3] (Lineweaver-Burk plots) is “mixed competitive inhibition”. The Reversibility of inhibition entry in experiment [3] (rate vs. enzyme concentration, BTCI 0.2 mM) is listed as “reversible”. In addition, the Ki – broadly, the equilibrium dissociation constant of an inhibitor or competing ligand from its target – in experiment [3] (replot of Lineweaver-Burk slopes vs. inhibitor concentration) was 0.281 µM.

In the case of `COc1cccc(-c2ccn(-c3ccccc3)c2)c1` [Compound 3q], the IC50 in experiment [1] (setting [4]) and in experiment [2] was > 50 µM throughout.

Regarding `FC(F)(F)c1cccc(-c2ccn(-c3ccccc3)c2)c1` [Compound 3r], the 50% inhibitory concentration (IC50) in experiment [1] (setting [4]) and in experiment [2] was > 50 µM in each case.

In the case of `c1ccc(-c2ccc(-c3ccn(-c4ccccc4)c3)cc2)cc1` [Compound 3s], the IC50 worked out at 5.87 ± 0.23 µM in experiment [1] (setting [5]); 5.95 ± 0.3 µM in experiment [1] (setting [6]); 6.05 ± 0.65 µM in experiment [1] (setting [7]); 3.76 ± 0.25 µM in experiment [1] (setting [4]); 4.41 ± 0.15 µM in experiment [1] (setting [8]); 4.21 ± 0.075 µM in experiment [1] (setting [9]). Also, the IC50 in experiment [1] (setting [10]) was 4.38 ± 0.18 µM; in experiment [2], > 50 µM.

These data come from article PMC9763612, “Discovery of pyrrole derivatives as acetylcholinesterase-sparing butyrylcholinesterase inhibitor” (Frontiers in Pharmacology, 2022).
